Measured values published in ChEMBL document CHEMBL1201862, “PubChem BioAssay data set” (2004).
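Cultured in 96-well plates, cells were exposed to test compound for 48 hours across five concentrations. Here, GI50 denotes the concentration required for 50% inhibition of growth.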 Active and inactive are the calls of the source. Rule as the data show it: active = GI50 up to about 1.1 µM and inactive = higher.

Key:
Assay in all cases: growth of human tumour cells (NCI), 48 h
T47D = system: T47D
SK-MEL-2 = system: SK-MEL-2
SF-539 = system: SF-539
Hs-578T = system: Hs-578T
NCI-H226 = system: NCI-H226
HCT-116 = system: HCT-116
KM12 = system: KM12
HCT-15 = system: HCT-15
EKVX = system: EKVX
SK-OV-3 = system: SK-OV-3
NCI-H522 = system: NCI-H522
MCF7 = system: MCF7
IGROV-1 = system: IGROV-1
MOLT-4 = system: MOLT-4
SK-MEL-28 = system: SK-MEL-28
ACHN = system: ACHN
HOP-92 = system: HOP-92
PC-3 = system: PC-3
DU-145 = system: DU-145
SF-268 = system: SF-268
OVCAR-8 = system: OVCAR-8
UACC-257 = system: UACC-257
CAKI-1 = system: CAKI-1
RXF 393 = system: RXF 393
A549 = system: A549
MDA-MB-435 = system: MDA-MB-435
UACC-62 = system: UACC-62
SNB-19 = system: SNB-19
NCI-H460 = system: NCI-H460
SN12C = system: SN12C
Malme-3M = system: Malme-3M
HT-29 = system: HT-29
U-251 = system: U-251
BT-549 = system: BT-549
HOP-62 = system: HOP-62
OVCAR-3 = system: OVCAR-3
K562 = system: K562
NCI/ADR-RES = system: NCI/ADR-RES
OVCAR-5 = system: OVCAR-5
SW-620 = system: SW-620
SF-295 = system: SF-295
OVCAR-4 = system: OVCAR-4
HCC 2998 = system: HCC 2998
COLO 205 = system: COLO 205
HL-60 = system: HL-60
UO-31 = system: UO-31
SK-MEL-5 = system: SK-MEL-5
M14 = system: M14
CCRF-CEM = system: CCRF-CEM
MDA-MB-231 = system: MDA-MB-231
SR = system: SR
TK-10 = system: TK-10
NCI-H23 = system: NCI-H23
SNB-75 = system: SNB-75
LOX IMVI = system: LOX IMVI
786-0 = system: 786-0
A498 = system: A498
RPMI-8226 = system: RPMI-8226

## CC(C)(C)OC(=O)N1CCC23CCCC2C(=O)CC=C13 (stereo unspecified)
T47D
  GI50: > 100 µM (inactive)
SK-MEL-2
  GI50: > 100 µM (inactive)
SF-539
  GI50: > 100 µM (inactive)
Hs-578T
  GI50: > 100 µM (inactive)
NCI-H226
  GI50: > 100 µM (inactive)
HCT-116
  GI50: 72.4 µM (inactive)
KM12
  GI50: > 100 µM (inactive)
HCT-15
  GI50: > 100 µM
EKVX
  GI50: > 100 µM (inactive)
SK-OV-3
  GI50: > 100 µM (inactive)
NCI-H522
  GI50: 66.4 µM (inactive)
MCF7
  GI50: > 100 µM (inactive)
IGROV-1
  GI50: > 100 µM (inactive)
MOLT-4
  GI50: > 100 µM (inactive)
SK-MEL-28
  GI50: > 100 µM (inactive)
ACHN
  GI50: > 100 µM (inactive)
HOP-92
  GI50: 38.3 µM (inactive)
PC-3
  GI50: > 100 µM (inactive)
DU-145
  GI50: > 100 µM (inactive)
SF-268
  GI50: > 100 µM (inactive)
OVCAR-8
  GI50: > 100 µM (inactive)
UACC-257
  GI50: 11.8 µM (inactive)
CAKI-1
  GI50: > 100 µM (inactive)
RXF 393
  GI50: > 100 µM (inactive)
A549
  GI50: > 100 µM (inactive)
MDA-MB-435
  GI50: > 100 µM (inactive)
UACC-62
  GI50: > 100 µM (inactive)
SNB-19
  GI50: > 100 µM (inactive)
NCI-H460
  GI50: > 100 µM (inactive)
SN12C
  GI50: > 100 µM (inactive)
Malme-3M
  GI50: > 100 µM (inactive)
HT-29
  GI50: > 100 µM (inactive)
U-251
  GI50: > 100 µM (inactive)
BT-549
  GI50: > 100 µM (inactive)
HOP-62
  GI50: > 100 µM (inactive)
OVCAR-3
  GI50: > 100 µM (inactive)
K562
  GI50: > 100 µM (inactive)
NCI/ADR-RES
  GI50: > 100 µM (inactive)
OVCAR-5
  GI50: > 100 µM (inactive)
SW-620
  GI50: > 100 µM (inactive)
SF-295
  GI50: > 100 µM (inactive)
OVCAR-4
  GI50: > 100 µM (inactive)
HCC 2998
  GI50: > 100 µM (inactive)
COLO 205
  GI50: 70.8 µM (inactive)
HL-60
  GI50: > 100 µM (inactive)
UO-31
  GI50: > 100 µM (inactive)
SK-MEL-5
  GI50: > 100 µM (inactive)
M14
  GI50: > 100 µM (inactive)
CCRF-CEM
  GI50: 37.9 µM (inactive)
MDA-MB-231
  GI50: > 100 µM (inactive)
SR
  GI50: > 100 µM (inactive)
TK-10
  GI50: > 100 µM (inactive)
NCI-H23
  GI50: > 100 µM (inactive)
SNB-75
  GI50: > 100 µM (inactive)
LOX IMVI
  GI50: > 100 µM (inactive)
786-0
  GI50: > 100 µM (inactive)

## Cc1ccc([S+]([O-])C[C@@]2(C(F)F)NC(=O)NC2=O)cc1 (stereo partly specified)
T47D
  GI50: > 100 µM (inactive)
SK-MEL-2
  GI50: > 100 µM (inactive)
Hs-578T
  GI50: > 100 µM (inactive)
NCI-H226
  GI50: > 100 µM (inactive)
A498
  GI50: > 100 µM (inactive)
HCT-116
  GI50: > 100 µM (inactive)
KM12
  GI50: > 100 µM (inactive)
HCT-15
  GI50: > 100 µM
EKVX
  GI50: > 100 µM (inactive)
SK-OV-3
  GI50: > 100 µM (inactive)
NCI-H522
  GI50: > 100 µM (inactive)
IGROV-1
  GI50: > 100 µM (inactive)
MOLT-4
  GI50: > 100 µM (inactive)
SK-MEL-28
  GI50: > 100 µM (inactive)
ACHN
  GI50: > 100 µM (inactive)
HOP-92
  GI50: > 100 µM (inactive)
PC-3
  GI50: > 100 µM (inactive)
DU-145
  GI50: > 100 µM (inactive)
SF-268
  GI50: > 100 µM (inactive)
OVCAR-8
  GI50: > 100 µM (inactive)
UACC-257
  GI50: > 100 µM (inactive)
CAKI-1
  GI50: > 100 µM (inactive)
RXF 393
  GI50: > 100 µM (inactive)
A549
  GI50: > 100 µM (inactive)
MDA-MB-435
  GI50: > 100 µM (inactive)
UACC-62
  GI50: > 100 µM (inactive)
SNB-19
  GI50: > 100 µM (inactive)
NCI-H460
  GI50: > 100 µM (inactive)
Malme-3M
  GI50: > 100 µM (inactive)
HT-29
  GI50: > 100 µM (inactive)
U-251
  GI50: > 100 µM (inactive)
BT-549
  GI50: > 100 µM (inactive)
HOP-62
  GI50: > 100 µM (inactive)
OVCAR-3
  GI50: > 100 µM (inactive)
K562
  GI50: > 100 µM (inactive)
RPMI-8226
  GI50: > 100 µM (inactive)
NCI/ADR-RES
  GI50: > 100 µM (inactive)
OVCAR-5
  GI50: > 100 µM (inactive)
SW-620
  GI50: > 100 µM (inactive)
SF-295
  GI50: > 100 µM (inactive)
OVCAR-4
  GI50: > 100 µM (inactive)
HCC 2998
  GI50: > 100 µM (inactive)
COLO 205
  GI50: > 100 µM (inactive)
HL-60
  GI50: > 100 µM (inactive)
UO-31
  GI50: > 100 µM (inactive)
SK-MEL-5
  GI50: > 100 µM (inactive)
M14
  GI50: > 100 µM (inactive)
CCRF-CEM
  GI50: > 100 µM (inactive)
MDA-MB-231
  GI50: > 100 µM (inactive)
SR
  GI50: > 100 µM (inactive)
TK-10
  GI50: > 100 µM (inactive)
NCI-H23
  GI50: > 100 µM (inactive)
SNB-75
  GI50: > 100 µM (inactive)
LOX IMVI
  GI50: > 100 µM (inactive)
786-0
  GI50: > 100 µM (inactive)
